Measurements from patent US6992079B2, “Substituted 11-phenyl-dibenzazepine compounds useful for the treatment or prevention of diseases characterized by abnormal cell proliferation” (President Fellows of Harvard College, priority 1997, dated 2006).
Read-outs that look alike come from different tables or passages of the source.

Key:
SK-MEL-5 = experiment: In-Vitro Testing SRB panel: Melanoma; type: cell-based; details: SK-MEL-5, 48 h
LOX IMVI = experiment: In-Vitro Testing SRB panel: Melanoma; type: cell-based; details: 48 h
NCI-H460 = type: cell-based; details: NCI-H460, 48 h
[1] = tested on: panel of human cancer cells; experiment: In vitro screening, SRB, panel of 60 human cancer cell lines; type: cell-based
ACHN = experiment: In-Vitro Testing SRB panel: Renal Cancer; type: cell-based; details: 48 h
OVCAR-8 = experiment: In-Vitro Testing SRB panel: Ovarian Cancer; type: cell-based; details: OVCAR-8, 48 h
CARI-1 = experiment: In-Vitro Testing SRB panel: Renal Cancer; type: cell-based; details: 48 h
CCRF-CEM = experiment: In-Vitro Testing SRB panel: Leukemia; type: cell-based; details: 48 h
A549/ATCC = type: cell-based
MC-F7 = experiment: In-Vitro Testing SRB panel: Breast Cancer; type: cell-based
UACC-62 = experiment: In-Vitro Testing SRB panel: Melanoma; type: cell-based; details: UACC-62, 48 h
[2] = tested on: NIH 3T3 mouse fibroblast cells; experiment: Mitogenic assay (mitogen-induced cell proliferation); type: cell-based
K-562 = experiment: In-Vitro Testing SRB panel: Leukemia; type: cell-based
[3] = tested on: squamous cell carcinoma (KLN-205) cells; experiment: Tumor growth in murine squamous cell carcinoma model; type: in vivo, mouse
SNB-75 = experiment: In-Vitro Testing SRB panel: CNS Cancer; type: cell-based; details: SNB-75, 48 h
A498 = experiment: In-Vitro Testing SRB panel: Renal Cancer; type: cell-based; details: A498, 48 h
[4] = In-Vitro Testing SRB panel: Renal Cancer; type: cell-based; details: 48 h
SK-OV-3 = experiment: In-Vitro Testing SRB panel: Ovarian Cancer; type: cell-based; details: SK-OV-3, 48 h
ROP-92 = type: cell-based; details: 48 h
[5] = Homo sapiens, read-out: LC50 (the source's name)

`O=C(c1ccc([N+](=O)[O-])cc1)N1Cc2ccccc2C(c2ccccc2Cl)c2ccccc21` (stereo not drawn) [Compound 28, N-(4′-Nitrobenzoyl)-11-(2′-chlorophenyl)-5,6-dihydro-11H-dibenz[b,e]azepine] gave a GI50 (SK-MEL-5; Homo sapiens) of 0.529 µM, a CC50 (SK-MEL-5; [5]) greater than 100 µM and a TGI (SK-MEL-5) of 1.74E−05 Molar. The “Percent Growth” value (SK-MEL-5; log10 conc −4.0 Molar) was −25%, the “Percent Growth” value (SK-MEL-5; log10 conc −5.0 Molar) was 8% and the “Percent Growth” value (SK-MEL-5; log10 conc −6.0 Molar) was 40%. The “Percent Growth” value (SK-MEL-5; log10 conc −7.0 Molar) was 76%, the “Percent Growth” value (SK-MEL-5; log10 conc −8.0 Molar) was 84% and the TGI (LOX IMVI) was greater than 1.00E−04 Molar. The GI50 (LOX IMVI; Homo sapiens) was 0.382 µM, the CC50 (LOX IMVI; [5]) was greater than 100 µM and the “Percent Growth” value (LOX IMVI; log10 conc −4.0 Molar) was 9%. The “Percent Growth” value (LOX IMVI; log10 conc −5.0 Molar) was 8%, the “Percent Growth” value (LOX IMVI; log10 conc −6.0 Molar) was 19% and the “Percent Growth” value (LOX IMVI; log10 conc −7.0 Molar) was 93%. For the same molecule, the “Percent Growth” value (LOX IMVI; log10 conc −8.0 Molar) was 103%, the GI50 (NCI-H460; Homo sapiens) was 3.65 µM and the CC50 (NCI-H460; [5]) was greater than 100 µM. For the same molecule, the TGI (NCI-H460) was greater than 1.00E−04 Molar, the “Percent Growth” value (NCI-H460; log10 conc −4.0 Molar) was 15% and the “Percent Growth” value (NCI-H460; log10 conc −5.0 Molar) was 12%. The “Percent Growth” value (NCI-H460; log10 conc −6.0 Molar) was 18%, the “Percent Growth” value (NCI-H460; log10 conc −7.0 Molar) was 92% and the “Percent Growth” value (NCI-H460; log10 conc −8.0 Molar) was 97%. The “activity against the human cell panel” value [1] was “exhibited activity against the human cell panel”, the TGI (ACHN) was greater than 1.00E−04 Molar and the GI50 (ACHN; Homo sapiens) was 1.37 µM. For the same molecule, the CC50 (ACHN; [5]) was greater than 100 µM, the “Percent Growth” value (ACHN; log10 conc −4.0 Molar) was 19% and the “Percent Growth” value (ACHN; log10 conc −5.0 Molar) was 30%. The “Percent Growth” value (ACHN; log10 conc −6.0 Molar) was 53%, the “Percent Growth” value (ACHN; log10 conc −7.0 Molar) was 92% and the “Percent Growth” value (ACHN; log10 conc −8.0 Molar) was 102%. It also gave a GI50 (OVCAR-8; Homo sapiens) of 2.86 µM, a CC50 (OVCAR-8; [5]) greater than 100 µM and a TGI (OVCAR-8) greater than 1.00E−04 Molar. For the same molecule, the “Percent Growth” value (OVCAR-8; log10 conc −4.0 Molar) was 28%, the “Percent Growth” value (OVCAR-8; log10 conc −5.0 Molar) was 33% and the “Percent Growth” value (OVCAR-8; log10 conc −6.0 Molar) was 64%. The “Percent Growth” value (OVCAR-8; log10 conc −7.0 Molar) was 102%, the “Percent Growth” value (OVCAR-8; log10 conc −8.0 Molar) was 105% and the TGI (CARI-1; CARI-1) was greater than 1.00E−04 Molar. For the same molecule, the “Percent Growth” value (CARI-1; CARI-1, log10 conc −4.0 Molar) was 22%, the “Percent Growth” value (CARI-1; CARI-1, log10 conc −5.0 Molar) was 40% and the “Percent Growth” value (CARI-1; CARI-1, log10 conc −6.0 Molar) was 61%. The “Percent Growth” value (CARI-1; CARI-1, log10 conc −7.0 Molar) was 91%, the “Percent Growth” value (CARI-1; CARI-1, log10 conc −8.0 Molar) was 94% and the GI50 (CARI-1; Homo sapiens) was 3.26 µM. For the same molecule, the CC50 (CARI-1; Homo sapiens, CARI-1, read-out: LC50 (the source's name)) was greater than 100 µM, the TGI (CCRF-CEM) was 2.99E−06 Molar and the GI50 (CCRF-CEM; Homo sapiens) was 0.0909 µM. For the same molecule, the CC50 (CCRF-CEM; [5]) was greater than 100 µM, the “Percent Growth” value (CCRF-CEM; log10 conc −4.0 Molar) was −3% and the “Percent Growth” value (CCRF-CEM; log10 conc −5.0 Molar) was −11%. For the same molecule, the “Percent Growth” value (CCRF-CEM; log10 conc −6.0 Molar) was 10%, the “Percent Growth” value (CCRF-CEM; log10 conc −7.0 Molar) was 49% and the “Percent Growth” value (CCRF-CEM; log10 conc −8.0 Molar) was 66%. For the same molecule, the TGI (A549/ATCC; A549/ATCC, 48 h) was greater than 1.00E−04 Molar, the “Percent Growth” value (A549/ATCC; A549/ATCC, log10 conc −4.0 Molar, 48 h) was 14% and the “Percent Growth” value (A549/ATCC; A549/ATCC, log10 conc −5.0 Molar, 48 h) was 20%. The “Percent Growth” value (A549/ATCC; A549/ATCC, log10 conc −6.0 Molar, 48 h) was 49%, the “Percent Growth” value (A549/ATCC; A549/ATCC, log10 conc −7.0 Molar, 48 h) was 92% and the “Percent Growth” value (A549/ATCC; A549/ATCC, log10 conc −8.0 Molar, 48 h) was 97%. The GI50 (A549/ATCC; Homo sapiens, A549, 48 h) was 0.937 µM, the CC50 (A549/ATCC; Homo sapiens, A549/ATCC, 48 h, read-out: LC50 (the source's name)) was greater than 100 µM and the GI50 (MC-F7; Homo sapiens, MCF7, 48 h) was 0.872 µM. The CC50 (MC-F7; Homo sapiens, MCF7, MC-F7, 48 h, read-out: LC50 (the source's name)) was greater than 100 µM, the TGI (MC-F7; MC-F7, 48 h) was greater than 1.00E−04 Molar and the “Percent Growth” value (MC-F7; MC-F7, log10 conc −4.0 Molar, 48 h) was 8%. The “Percent Growth” value (MC-F7; MC-F7, log10 conc −5.0 Molar, 48 h) was 21%, the “Percent Growth” value (MC-F7; MC-F7, log10 conc −6.0 Molar, 48 h) was 48% and the “Percent Growth” value (MC-F7; MC-F7, log10 conc −7.0 Molar, 48 h) was 88%. For the same molecule, the “Percent Growth” value (MC-F7; MC-F7, log10 conc −8.0 Molar, 48 h) was 97%, the GI50 (UACC-62; Homo sapiens) was 0.363 µM and the CC50 (UACC-62; [5]) was greater than 100 µM. For the same molecule, the “Percent Growth” value (UACC-62; log10 conc −4.0 Molar) was 0%, the “Percent Growth” value (UACC-62; log10 conc −5.0 Molar) was 22% and the “Percent Growth” value (UACC-62; log10 conc −6.0 Molar) was 45%. The “Percent Growth” value (UACC-62; log10 conc −7.0 Molar) was 57%, the “Percent Growth” value (UACC-62; log10 conc −8.0 Molar) was 82% and the IC50 ([2]; NIH3T3) was 0.04 to 0.5 µM. The inhibition at 10 µM ([2]; NIH3T3, 10 μM compound) was 99%, the GI50 (K-562; Homo sapiens, K562, 48 h) was 0.394 µM and the CC50 (K-562; Homo sapiens, K562, K-562, 48 h, read-out: LC50 (the source's name)) was greater than 100 µM. The TGI (K-562; K-562, 48 h) was greater than 1.00E−04 Molar, the “Percent Growth” value (K-562; K-562, log10 conc −4.0 Molar, 48 h) was 26% and the “Percent Growth” value (K-562; K-562, log10 conc −5.0 Molar, 48 h) was 25%. The “Percent Growth” value (K-562; K-562, log10 conc −6.0 Molar, 48 h) was 38%, the “Percent Growth” value (K-562; K-562, log10 conc −7.0 Molar, 48 h) was 68% and the “Percent Growth” value (K-562; K-562, log10 conc −8.0 Molar, 48 h) was 82%. The “cyclin D1 and PCNA expression in vivo” value ([3]; KLN induced tumors) was “abrogated cyclin D1 and PCNA expression”, the tumor growth ([3]; KLN-205, subcutaneous injection or oral administration of 80 mg/kg/day for 30 days) was “significantly inhibited tumor growth” and the GI50 (SNB-75; Homo sapiens) was 5.25 µM. For the same molecule, the CC50 (SNB-75; [5]) was greater than 100 µM, the TGI (SNB-75) was greater than 1.00E−04 Molar and the “Percent Growth” value (SNB-75; log10 conc −4.0 Molar) was 17%. For the same molecule, the “Percent Growth” value (SNB-75; log10 conc −5.0 Molar) was 26%, the “Percent Growth” value (SNB-75; log10 conc −6.0 Molar) was 75% and the “Percent Growth” value (SNB-75; log10 conc −7.0 Molar) was 111%. The “Percent Growth” value (SNB-75; log10 conc −8.0 Molar) was 108%, the TGI (A498) was greater than 1.00E−04 Molar and the “Percent Growth” value (A498; log10 conc −4.0 Molar) was 15%. The “Percent Growth” value (A498; log10 conc −5.0 Molar) was 57%, the “Percent Growth” value (A498; log10 conc −6.0 Molar) was 81% and the “Percent Growth” value (A498; log10 conc −7.0 Molar) was 93%. The “Percent Growth” value (A498; log10 conc −8.0 Molar) was 97%, the GI50 (A498; Homo sapiens) was 14.4 µM and the CC50 (A498; [5]) was greater than 100 µM. The TGI ([4]; DO-31) was greater than 1.00E−04 Molar, the “Percent Growth” value ([4]; DO-31, log10 conc −4.0 Molar) was 14% and the “Percent Growth” value ([4]; DO-31, log10 conc −5.0 Molar) was 28%. The “Percent Growth” value ([4]; DO-31, log10 conc −6.0 Molar) was 56%, the “Percent Growth” value ([4]; DO-31, log10 conc −7.0 Molar) was 111% and the “Percent Growth” value ([4]; DO-31, log10 conc −8.0 Molar) was 105%. For the same molecule, the GI50 ([4]; Homo sapiens) was 1.69 µM, the CC50 ([4]; Homo sapiens, DO-31, read-out: LC50 (the source's name)) was greater than 100 µM and the GI50 (SK-OV-3; Homo sapiens) was 8.31 µM. The CC50 (SK-OV-3; [5]) was greater than 100 µM, the TGI (SK-OV-3) was greater than 1.00E−04 Molar and the “Percent Growth” value (SK-OV-3; log10 conc −4.0 Molar) was 36%. The “Percent Growth” value (SK-OV-3; log10 conc −5.0 Molar) was 47%, the “Percent Growth” value (SK-OV-3; log10 conc −6.0 Molar) was 79% and the “Percent Growth” value (SK-OV-3; log10 conc −7.0 Molar) was 97%. The “Percent Growth” value (SK-OV-3; log10 conc −8.0 Molar) was 97%, the GI50 (ROP-92; Homo sapiens) was 7.51 µM and the CC50 (ROP-92; Homo sapiens, ROP-92, read-out: LC50 (the source's name)) was greater than 100 µM. The TGI (ROP-92; ROP-92) was greater than 1.00E−04 Molar, the “Percent Growth” value (ROP-92; ROP-92, log10 conc −4.0 Molar) was 19% and the “Percent Growth” value (ROP-92; ROP-92, log10 conc −5.0 Molar) was 46%. The “Percent Growth” value (ROP-92; ROP-92, log10 conc −6.0 Molar) was 79%, the “Percent Growth” value (ROP-92; ROP-92, log10 conc −7.0 Molar) was 104% and the “Percent Growth” value (ROP-92; ROP-92, log10 conc −8.0 Molar) was 100%.
